Laboratory results from patent US10004754B2, “ANP fragment adjuvant therapy to standard of care (SOC) diuretic treatment” (MADELEINE PHARMACEUTICALS PTY LTD, priority 2014, dated 2018).
Where no end group is shown, it is not given here.

Assays:
Assay type in all cases: in vivo, human
stable CHF patients [1] = test: Renal function (eGFR, plasma creatinine, MAG3 clearance) with sc VSDL infusion, Example 2; conditions: for eGFR % Change / eGFR: patients with eGFR 15-60; for eGFR: baseline 37.9 ± 11
Protocol: (§1) A second study was conducted with a population of eighteen (18) test adult CHF patients, both male and female, in order to further evaluate the improvement in renal and cardiac function in stable CHF patients given VSDL (by sc administration) in addition to standard of care (SOC) treatment.
(§2) Participants were selected on the basis of the Inclusion and Exclusion criteria given in Example 1. […] In addition, selected patients were required to have a plasma brain natriuretic peptide (BNP) concentration of ≥100 pg/mL and a GFR ≥25 mL/min and <70 mL/min as calculated by the Cockroft Gault calculation (ie moderate renal impairment). On the other hand, the presence of acute MI (ie as indicated by ST elevation and/or elevation of Troponin-T) or evidence of MI or other high risk acute coronary syndrome within the past 6 weeks, hypotension (ie systolic blood pressure (SBP) <90 mmHg), persistent and/or uncontrolled hypertension (SBP>180 mmHg), cardiogenic shock or any other clinical condition that would contraindicate administration of an agent with potent vasodilatory effects, excluded patients from participating in the study. Participants in this study also had standard exclusion criteria that accompany pulmonary artery (SG) catheterisation.
(§3) The study was an open-label, sequential group, continuous sc infusion study conducted at a single centre. Two steady-state concentration levels (Css) of VSDL were targeted, approximately 10 ng/mL (n=2 lead-in, and n=10, cohort 1) and 20 ng/mL (n=6, cohort 2). The two lead-in patients were treated with similar dose regimens to confirm that the measured plasma concentrations were in agreement with the targeted Css. Two patients from cohort 1 and all 6 patients from cohort 2 underwent pulmonary artery Swan-Ganz (SG) catheterisation to enable haemodynamic monitoring.
(§4) VSDL prepared as described in Example 1, was administered via sc 6 or 12 hour infusion into the lower abdomen at a maximum volume rate of 350 μL/hr (ie approximately 6 μL/min). The rate of infusion of VSDL for the targeted Css level of 10 ng/mL was either 900 μg/hr (0.3 mL/hr) for 12 hrs or a bimodal infusion of 900 μg/hr for 5 hrs followed by 550 μg/hr (0.18 mL/hr) for 7 hrs. The rate of infusion of VSDL for the targeted Css level of 20 ng/mL was bimodal; 1800 μg/hr (0.20 mL/hr) for 5 hrs followed by 1100 μg/hr (0.12 mL/hr) for 7 hrs (see WO 2014/138796). For the lead-in patients, the infusions were performed at 900 μg/hr for 6 hrs.
(§5) R Studio (version 4) and GraphPad Prism (GraphPad Software, version 6) were used for all statistical analyses. Statistically significant changes from base line for all parameters were tested using with linear mixed effects model or one-way repeated measures ANOVA with Bonferroni correction. A p value of 0.05 was set for statistically significant differences. All data are reported as mean±s.d or mean (95% CI).
This change was also accompanied by a 10% decrease in plasma creatinine from 162±58 μmol/L at baseline to […] (p≤0.05) during infusion (Table 6).

stable CHF patients [2] = test: Blood pressure during and after continuous sc VSDL infusion, Example 2; conditions: for average drop in blood pressure, diastolic / average drop in blood pressure, systolic: during the 24 hour time period; for mean drop in blood pressure, diastolic / mean drop in blood pressure, systolic: throughout the 12 hour infusion period
Protocol: as §1, §2, §3, §4, §5

stable CHF patients [3] = test: Urine output and fractional excretion of sodium with sc VSDL infusion, Example 2
Protocol: as §1, §2, §3, §4, §5

[4] = lead-in patients, 900 μg/hr sc for 6 hours, up to 24 hours post infusion
[5] = patients with baseline blood pressures ≤105/60 mmHg, during the infusion

## EVVPPQVLSEPNEEAGAALSPLPEVPPWTGEVSPAQR [VSDL]
Stable CHF patients [1]; >0.5-6 hs vs baseline
  eGFR % Change: (12) %
Stable CHF patients [1]; >0.5-6 hs
  eGFR: 42.6 ± 13 ml/min/1.73 m^2
Stable CHF patients [1]; >6-12 hs vs baseline
  eGFR % Change: (16) %
Stable CHF patients [1]; >6-12 hs
  eGFR: 43.8 ± 14 ml/min/1.73 m^2
Stable CHF patients [1]; post-treatment, pre-treatment 140±44, p≤0.05
  MAG3 Clearance: 149±41 ml/min/1.73 m^2
Stable CHF patients [2]; 10 ng/ml cohort, 0.5-6 hs, baseline 61 ± 8
  Diastolic Blood Pressure: 64 ± 8 mmHg
Stable CHF patients [2]; 10 ng/ml cohort, 0.5-6 hs, baseline 116 ± 10
  Systolic Blood Pressure: 121 ± 11 mmHg
Stable CHF patients [2]; 10 ng/ml cohort, >6-12 hs, baseline 61 ± 8
  Diastolic Blood Pressure: 65 ± 7 mmHg
Stable CHF patients [2]; 10 ng/ml cohort, >6-12 hs, baseline 116 ± 10
  Systolic Blood Pressure: 125 ± 10 mmHg
Stable CHF patients [2]; 10 ng/ml cohort, >12-24 hs, baseline 61 ± 8
  Diastolic Blood Pressure: 62 ± 7 mmHg
Stable CHF patients [2]; 10 ng/ml cohort, >12-24 hs, baseline 116 ± 10
  Systolic Blood Pressure: 118 ± 10 mmHg
Stable CHF patients [2]; 10 ng/ml cohort
  average drop in blood pressure, diastolic: −5 mmHg
  average drop in blood pressure, systolic: −8 mmHg
  mean drop in blood pressure, diastolic: −6 mmHg
  mean drop in blood pressure, systolic: −8 mmHg
Stable CHF patients [2]; 20 ng/ml cohort, 0.5-6 hs, baseline 71 ± 12
  Diastolic Blood Pressure: 66 ± 6 mmHg
Stable CHF patients [2]; 20 ng/ml cohort, 0.5-6 hs, baseline 124 ± 21
  Systolic Blood Pressure: 116 ± 17 mmHg
Stable CHF patients [2]; 20 ng/ml cohort, >6-12 hs, baseline 71 ± 12
  Diastolic Blood Pressure: 67 ± 6 mmHg
Stable CHF patients [2]; 20 ng/ml cohort, >6-12 hs, baseline 124 ± 21
  Systolic Blood Pressure: 118 ± 20 mmHg
Stable CHF patients [2]; 20 ng/ml cohort, >12-24 hs, baseline 71 ± 12
  Diastolic Blood Pressure: 64 ± 6 mmHg
Stable CHF patients [2]; 20 ng/ml cohort, >12-24 hs, baseline 124 ± 21
  Systolic Blood Pressure: 116 ± 21 mmHg
Stable CHF patients [2]; 20 ng/ml cohort
  average drop in blood pressure, diastolic: −8 mmHg
  average drop in blood pressure, systolic: −13 mmHg
  mean drop in blood pressure, diastolic: −7 mmHg
  mean drop in blood pressure, systolic: −14 mmHg
Stable CHF patients [2]; all VSDL-treated patients, p=0.4
  drops in mean blood pressures from baseline, based on post infusion time: no significant drops
Stable CHF patients [2]; at higher VSDL concentrations, p=0.005, FIGS. 5A and B
  systolic and diastolic blood pressures, regression on concentration of VSDL: significant decrease
Stable CHF patients [2]; lead-in patients, 900 μg/hr sc for 6 hours
  change in blood pressure: no significant change
Stable CHF patients [2]; [4]
  mean diastolic blood pressure: 66±3 mmHg
  mean systolic blood pressure: 114±6 mmHg
Stable CHF patients [2]; patients with BP ≤ 105 mmHg, 0.5-6 hs, baseline 57 ± 6
  Diastolic Blood Pressure: 61 ± 7 mmHg
Stable CHF patients [2]; patients with BP ≤ 105 mmHg, 0.5-6 hs, baseline 97 ± 8
  Systolic Blood Pressure: 106 ± 17 mmHg
Stable CHF patients [2]; patients with BP ≤ 105 mmHg, >6-12 hs, baseline 57 ± 6
  Diastolic Blood Pressure: 64 ± 8 mmHg
Stable CHF patients [2]; patients with BP ≤ 105 mmHg, >6-12 hs, baseline 97 ± 8
  Systolic Blood Pressure: 113 ± 25 mmHg
Stable CHF patients [2]; patients with BP ≤ 105 mmHg, >12-24 hs, baseline 57 ± 6
  Diastolic Blood Pressure: 62 ± 6 mmHg
Stable CHF patients [2]; patients with BP ≤ 105 mmHg, >12-24 hs, baseline 97 ± 8
  Systolic Blood Pressure: 109 ± 20 mmHg
Stable CHF patients [2]; patients with baseline blood pressures ≤105/60 mmHg
  drop in blood pressures: no significant drop
Stable CHF patients [2]; [5]
  average blood pressure drop, diastolic: −3 mmHg
  average blood pressure drop, systolic: −4 mmHg
Stable CHF patients [3]; 10 ng/ml cohort
  mean urine output: 2898 ± 334 mL
Stable CHF patients [3]; 10 ng/ml cohort, during infusion, baseline 2.2±0.3%, not statistically significant
  FENa (fractional excretion of sodium): 3.3±0.8%
Stable CHF patients [3]; 10 ng/ml cohort, post infusion, baseline 2.2±0.3%
  FENa (fractional excretion of sodium): 2.3±0.3%
Stable CHF patients [3]; 20 ng/ml cohort
  mean urine output: 3028 ± 301 mL
Stable CHF patients [3]; 20 ng/ml cohort, during infusion, baseline 1.6±0.3%
  FENa (fractional excretion of sodium): 2.4±0.8%
Stable CHF patients [3]; 20 ng/ml cohort, post infusion, baseline 1.6±0.3%
  FENa (fractional excretion of sodium): 1.6±0.4%
Stable CHF patients [3]; patients treated with VSDL plus SOC
  fluid output (urine volumes from baseline): increased
Stable CHF patients [3]; pooled 10 and 20 ng/ml patients, FIG. 2
  patients with urine volumes above 3 liters/day: more than 50%
